Measurements taken from patent US11708413B2 (priority 2016, dated 2023).

Tests used:
ARP-1 (MM) cells = assay type: cell-based, human
Procedure: (§1) Cell lines tested included B-lymphoma, multiple myeloma, and leukemia cells.
(§2) Cytotoxicity effects of the free drug linkers and conjugates were measured with a cell proliferation assay. A total of 12500 cells in a volume of 25 μl were seeded in a 384-well flat bottom white polystyrene plate on the day of assay. Free drug-linkers and conjugates were formulated at 2× starting concentration (1000 nM for free drug linkers and 100 nM for ADCs) in RPMI medium and filtered through MultiScreen HTS 96-Well Filter Plates (Millipore). Filter sterilized samples were serial diluted (1:3) under sterile conditions and added into treatment wells. Plates were cultured at 37° C. in a CO2 incubator for 72 hrs. For cell viability measurement, 30 μl of Cell Titer-Glo® reagent (Promega Corp.) was added into each well, and plates processed as per product instructions. Relative luminescence was measured on an ENVISION® plate reader (Perkin-Elmer; Waltham, Mass.). Relative luminescence readings were converted to % viability using untreated cells as controls. Data was fitted with non-linear regression analysis, using log(inhibitor) vs. response, variable slope, 4 parameter fit equation using GraphPad Prism. Data was expressed as % relative cell viability vs. dose of free drug-linker or conjugate in nM.
as §1

JVM-13 (CLL) cells = assay: cells; assay type: cell-based
Procedure: as §1, §2, §1

SUP-B15 (ALL) cells = assay: cells; assay type: cell-based
Procedure: as §1, §2, §1

RPMI-6666 (HL) cells = assay: cells; assay type: cell-based
Procedure: as §1, §2, §1

BDCM (AML) cells = assay: cells; assay type: cell-based
Procedure: as §1, §2, §1

ARD (MM) cells = assay: cells; assay type: cell-based
Procedure: as §1, §2, §1

K562 (CML) cells = assay: Cell killing assay (cell proliferation, Cell Titer-Glo), K562 (CML); assay type: cell-based; conditions: 72 hrs, NK = no killing
Procedure: as §1, §2
(§3) Each of Conjugates A-F was evaluated for the ability to bind and kill cells expressing CD74. […]

SU-DHL-6 (NHL) cells = assay: cells; assay type: cell-based, human
Procedure: as §1, §2, §1

RPMI-8226 (MM) cells = assay: cells; assay type: cell-based
Procedure: as §1, §2
Each of Conjugates A-F was evaluated for the ability to bind and kill cells expressing CD74. Cell lines tested included B-lymphoma, multiple myeloma, and leukemia cells. Controls included unconjugated anti-CD74 antibody.

OPM-2 (MM) cells = assay: Cell killing assay (cell proliferation, Cell Titer-Glo), OPM-2 (MM); assay type: cell-based; conditions: 72 hrs, NK = no killing
Procedure: as §1, §2, §3

COc1cc2cc(c1Cl)N(C)C(=O)C[C@H](OC(=O)[C@H](C)N(C)C(=O)CCCC(=O)N(C)CCOCCOCCOCCOCc1cn(C)nn1)[C@]1(C)O[C@H]1[C@H](C)[C@@H]1C[C@@](O)(NC(=O)O1)[C@H](OC)/C=C/C=C(/C)C2 [Conjugate B]
IC50 (ARP-1 (MM) cells; 72 h): 16 nM
Cell Killing Activity Span (ARP-1 (MM) cells; ARP-1 (MM) cells, 72 hrs, Cell Titer-Glo, NK = no killing): 82%
IC50 (JVM-13 (CLL) cells; 72 h): 2 nM
Cell Killing Activity Span (JVM-13 (CLL) cells; JVM-13 (CLL) cells, 72 hrs, Cell Titer-Glo, NK = no killing): 69%
IC50 (SUP-B15 (ALL) cells; 72 h): 5.7 nM
Cell Killing Activity Span (SUP-B15 (ALL) cells; SUP-B15 (ALL) cells, 72 hrs, Cell Titer-Glo, NK = no killing): 72%
IC50 (RPMI-6666 (HL) cells; 72 h): 1.3 nM
Cell Killing Activity Span (RPMI-6666 (HL) cells; RPMI-6666 (HL) cells, 72 hrs, Cell Titer-Glo, NK = no killing): 89%
IC50 (BDCM (AML) cells; 72 h): 15 nM
Cell Killing Activity Span (BDCM (AML) cells; BDCM (AML) cells, 72 hrs, Cell Titer-Glo, NK = no killing): 95%
IC50 (ARD (MM) cells; 72 h): 31 nM
Cell Killing Activity Span (ARD (MM) cells; ARD (MM) cells, 72 hrs, Cell Titer-Glo, NK = no killing): 53%
IC50 (K562 (CML) cells): > 50 nM
IC50 (SU-DHL-6 (NHL) cells; 72 h): 1.3 nM
Cell Killing Activity Span (SU-DHL-6 (NHL) cells; SU-DHL-6 (NHL) cells, 72 hrs, Cell Titer-Glo, NK = no killing): 98%
IC50 (RPMI-8226 (MM) cells; 72 h): 51 nM
Cell Killing Activity Span (RPMI-8226 (MM) cells; RPMI-8226 (MM) cells, 72 hrs, Cell Titer-Glo, NK = no killing): 41%
IC50 (OPM-2 (MM) cells): > 50 nM
